The source of these data is PubChem BioAssay (NCI).

Test systems include ACHN renal; HCT-15 colon; HOP-92 NSCLC; NCI-H226 lung; NCI-H23 lung; RXF 393 renal; SK-MEL-28 melanoma; SNB-75 CNS; SW-620 colon; NCI-H460 lung.
Common to all, as to test: NCI anticancer screen, dose series, 48 h

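Following 48 hours of exposure in 96-well plates, responses at five concentrations were used to interpolate endpoints linearly. At the GI50, growth is halved. TGI denotes the concentration required for complete inhibition of growth.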 A value given as a limit tells only on which side of the number the result lay.

Take `Oc1ccc2c(c1)-c1c(c3cc(O)ccc3n1CCN1CCOCC1)CC2`: the TGI is over 100 µM in the assay on ACHN renal; 45.4 µM in the assay with HCT-15 colon; over 100 µM in the assay on HOP-92 NSCLC; 41.4 µM with NCI-H226 lung; 73.5 µM with NCI-H23 lung; 75.8 µM with RXF 393 renal. Besides, the figures for the TGI in the assay on SK-MEL-28 melanoma, in the assay with SNB-75 CNS and in the assay with SW-620 colon were 61.9 µM, 58.5 µM and 71.2 µM, respectively.
Take `Cc1nc2c(cc1C(=O)NN)c(=O)n(C)c(=O)n2C`: the TGI in the assay with ACHN renal, in the assay with HCT-15 colon, with NCI-H226 lung, in the assay with NCI-H23 lung, in the assay on NCI-H460 lung and in the assay with RXF 393 renal was over 100 µM in each case. The TGI with SK-MEL-28 melanoma, with SNB-75 CNS and in the assay on SW-620 colon was over 100 µM throughout.
As to `Cc1c2c(n3c(nc4ccccc43)c1C#N)SCC2`, the TGI in the assay on ACHN renal, with HCT-15 colon, with HOP-92 NSCLC, in the assay on NCI-H226 lung, in the assay with NCI-H23 lung and with NCI-H460 lung was over 10 µM in each case. The TGI with SK-MEL-28 melanoma, with SNB-75 CNS and in the assay with SW-620 colon was over 10 µM throughout.
Regarding `Cc1cc(O)c(C(C)C)cc1NC(=O)Nc1cccc2ccccc12`, the TGI in the assay on ACHN renal amounted to 27.8 µM; in the assay with HCT-15 colon it was 69.1 µM; with HOP-92 NSCLC, 40.8 µM; in the assay with NCI-H226 lung, 46.7 µM; with NCI-H23 lung, 46.3 µM; in the assay with NCI-H460 lung, 41.4 µM. Also, the TGI in the assay on RXF 393 renal was 29.4 µM; in the assay with SK-MEL-28 melanoma, 55.8 µM; with SW-620 colon it was over 100 µM.
In the case of `COC12C=C/C(=C(/C(=O)OCc3ccncn3)C(=O)CCCCCCCCC3(OC)C=C/C(=C(/C(=O)OCc4ccncn4)C(=O)CCCCCCCC1)O3)O2`, the GI50 was 0.302 µM in the assay with ACHN renal; 0.278 µM in the assay on HCT-15 colon; 0.293 µM in the assay with NCI-H23 lung; 0.319 µM in the assay on NCI-H460 lung; 0.317 µM in the assay with SK-MEL-28 melanoma; 1.52 µM with SNB-75 CNS. Moreover, the GI50 in the assay with SW-620 colon is 0.303 µM. Further, the TGI worked out at 1.14 µM with ACHN renal; 1.12 µM in the assay with HCT-15 colon; 0.944 µM in the assay with NCI-H23 lung; 1.02 µM in the assay on NCI-H460 lung; 2.51 µM in the assay with SK-MEL-28 melanoma; 17.7 µM in the assay on SNB-75 CNS. In the assay with SW-620 colon, this compound registered a TGI of 1.14 µM.
Take `CN(Cc1c2ccccc2cc2ccccc12)S(=O)(=O)c1ccc(-c2c3nc(c(-c4ccc(S(=O)(=O)N(C)Cc5c6ccccc6cc6ccccc56)cc4)c4ccc([nH]4)c(-c4ccc(S(=O)(=O)N(C)Cc5c6ccccc6cc6ccccc56)cc4)c4nc(c(-c5ccc(S(=O)(=O)N(C)Cc6c7ccccc7cc7ccccc67)cc5)c5ccc2[nH]5)C=C4)C=C3)cc1`: the TGI was over 100 µM in the assay on ACHN renal; over 100 µM in the assay with HCT-15 colon; 83.4 µM with HOP-92 NSCLC; over 100 µM in the assay with NCI-H23 lung; over 100 µM in the assay with NCI-H460 lung; over 100 µM in the assay on RXF 393 renal. For the same compound, the TGI in the assay on SK-MEL-28 melanoma was over 100 µM; with SNB-75 CNS, 56.8 µM; in the assay on SW-620 colon, over 100 µM.
As for `Cc1cc(S(=O)(=O)Nc2nc3ccsc3c(=O)n2N)c(S)cc1Cl`, the TGI with ACHN renal is over 100 µM; in the assay on HCT-15 colon it was over 100 µM; in the assay with NCI-H226 lung, 88 µM; in the assay on NCI-H23 lung it was over 100 µM; in the assay on NCI-H460 lung, over 100 µM; with SK-MEL-28 melanoma, over 100 µM. The TGI in the assay on SNB-75 CNS and in the assay on SW-620 colon was over 100 µM in each case.
As to `CC(=O)Nc1ccc2c(C(=O)O)c(C)c(=O)[nH]c2n1`, the TGI with ACHN renal was over 100 µM; in the assay with HCT-15 colon it was over 100 µM; in the assay with HOP-92 NSCLC it was 56 µM; with NCI-H226 lung it was over 100 µM; in the assay on NCI-H23 lung it was over 100 µM; in the assay with NCI-H460 lung, over 100 µM. For the same compound, the TGI in the assay with RXF 393 renal and in the assay with SW-620 colon was over 100 µM in each case.
For the compound `COc1cc2c(cc1OC)C1CN3C(=O)CCC3C(O)C1c1cc(OC)c(OC)cc1-2` (stereo not drawn), the TGI in the assay with ACHN renal, in the assay with HCT-15 colon, in the assay with HOP-92 NSCLC, with NCI-H23 lung, with NCI-H460 lung and in the assay on RXF 393 renal was over 100 µM throughout. For the same compound, the TGI with SK-MEL-28 melanoma, with SNB-75 CNS and in the assay on SW-620 colon was over 100 µM throughout.
Regarding `O=C(O)CC(NC(=O)Nc1ccc([N+](=O)[O-])cc1)C(=O)Nc1ccc([N+](=O)[O-])cc1` (stereo not drawn), the TGI in the assay with ACHN renal, in the assay on HCT-15 colon, in the assay on NCI-H226 lung, in the assay on NCI-H23 lung, with NCI-H460 lung and in the assay on RXF 393 renal was over 100 µM throughout. Further, the TGI with SK-MEL-28 melanoma, in the assay on SNB-75 CNS and in the assay on SW-620 colon was over 100 µM in each case.
Take `CCNc1nc(N)c(C(=O)c2ccc(Cl)cc2)s1`: the TGI in the assay on ACHN renal was over 100 µM; with HCT-15 colon, over 100 µM; with HOP-92 NSCLC, over 100 µM; in the assay on NCI-H226 lung it was 70.6 µM; in the assay with NCI-H23 lung, over 100 µM; in the assay on NCI-H460 lung, over 100 µM. Moreover, the TGI was 53.5 µM with RXF 393 renal, over 100 µM with SK-MEL-28 melanoma and over 100 µM in the assay on SW-620 colon.
On to `CN(C(=O)C12C3C4(C(=O)O)C1(C(=O)N(C)C(C)(C)C)C1C2(C(=O)O)C3(C(=O)N(C)C(C)(C)C)C14C(=O)N(C)C(C)(C)C)C(C)(C)C` (stereo not drawn), for which the TGI in the assay on ACHN renal, with HCT-15 colon, in the assay with HOP-92 NSCLC, in the assay on NCI-H23 lung, in the assay on NCI-H460 lung and in the assay on RXF 393 renal was over 100 µM in each case. Also, the TGI in the assay on SK-MEL-28 melanoma and in the assay with SW-620 colon was over 100 µM in each case.
Turning to `COc1ccc2oc(S(=O)(=O)N3CC(CCl)c4ccc([N+](=O)[O-])cc43)cc2c1` (stereo not drawn), the TGI was over 48.1 µM in the assay on ACHN renal; 3.3 µM with HCT-15 colon; over 73.8 µM in the assay with HOP-92 NSCLC; 1.43 µM in the assay with NCI-H226 lung; over 24 µM in the assay with NCI-H23 lung; 0.401 µM in the assay on NCI-H460 lung. Moreover, the TGI was over 61.6 µM in the assay on SK-MEL-28 melanoma, over 36.8 µM in the assay with SNB-75 CNS and over 100 µM in the assay with SW-620 colon.
On to `CC1(CCCC2(C)CCNC2=O)OCCO1` (stereo not drawn), for which the TGI with ACHN renal, in the assay with HCT-15 colon, in the assay with NCI-H226 lung, with NCI-H23 lung, in the assay with NCI-H460 lung and in the assay with RXF 393 renal was over 10 µM each time. The TGI in the assay with SK-MEL-28 melanoma, with SNB-75 CNS and in the assay with SW-620 colon was over 10 µM in each case.
